This is an account of results in patent publication US10023562B2, “Heteroaryl substituted pyridyl compounds useful as kinase modulators” (BRISTOL-MYERS SQUIBB COMPANY, priority 2012, dated 2018).

IRAK4, sequence (Q9NWZ3 whole entry, species assumed): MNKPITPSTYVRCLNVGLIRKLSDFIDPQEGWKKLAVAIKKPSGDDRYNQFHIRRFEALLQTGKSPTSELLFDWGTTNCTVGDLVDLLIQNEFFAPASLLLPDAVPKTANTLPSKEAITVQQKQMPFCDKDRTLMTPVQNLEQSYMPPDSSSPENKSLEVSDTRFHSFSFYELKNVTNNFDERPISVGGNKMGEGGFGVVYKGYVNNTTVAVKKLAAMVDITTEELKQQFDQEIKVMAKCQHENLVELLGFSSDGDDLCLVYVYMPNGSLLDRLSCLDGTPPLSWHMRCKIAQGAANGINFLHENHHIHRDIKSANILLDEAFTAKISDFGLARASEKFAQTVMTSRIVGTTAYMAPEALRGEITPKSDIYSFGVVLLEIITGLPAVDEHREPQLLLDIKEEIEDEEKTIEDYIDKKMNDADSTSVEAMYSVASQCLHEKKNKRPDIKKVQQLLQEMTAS

The target of one assay is IRAK4 (Homo sapiens (Human), UniProt Q9NWZ3). Briefly: IRAK4 Inhibition Assay. Format: biochemical. The following applies: ATP 500 μM; IRAK4 0.6 nM; 60 min at room temperature. The protocol:
IRAK4 Inhibition Assay The assays were performed in U-bottom 384-well plates. […] The reaction was initiated by the combination of IRAK4 with substrates and test compounds. The reaction mixture was incubated at room temperature for 60 min. and terminated by adding 45 μL of 35 mM EDTA to each sample. The reaction mixture was analyzed on the Caliper LABCHIP® 3000 (Caliper, Hopkinton, Mass.) by electrophoretic separation of the fluorescent substrate and phosphorylated product.
As for `CC(C)Nc1cc(Nc2ncc(Cl)cc2Cl)ncc1C(=O)NC[C@@H](F)C(C)(C)O` [Example 84], the IC50 was 1.5 nM.

The next assay has as its system TLR2 induced IL-6 in peripheral blood mononuclear cells (PBMCs). Nature of the assay: PBMC TLR2 Induced IL-6 Assay. Format: cell-based. The conditions noted are these: Homo sapiens, PBMC, 5 h, 10 μg/ml lipoteichoic acid for 5 hours, IL-6 by ELISA, values marked * are EC50, read-out: Cell EC50 (values marked *). The protocol:
PBMC TLR2 Induced IL-6 Assay Peripheral blood mononuclear cells (PBMCs) were isolated from human blood containing the anti-coagulant EDTA (2.5 mM) by centrifugation over a FICOLL® gradient. […] At the end of the culture, plates were centrifuged at 1800 rpm for 10 minutes to pellet the cells. Supernatants were harvested and analyzed for IL-6 levels by ELISA (BD Biosciences, San Jose, Calif.).
For `CC(C)Nc1cc(Nc2ncc(Cl)cc2Cl)ncc1C(=O)NC[C@@H](F)C(C)(C)O` [Example 84], the concentration for a half-maximal effect (EC50) was 138 nM. Still for that read-out and setting: for `Cn1nnnc1-c1cccc(Nc2cc(Nc3ncc(C#N)cc3Cl)ncc2C(=O)NC[C@@H](F)C(C)(C)O)c1` [Example 146] the value was 509 nM; for `Cn1nnnc1-c1ccc(Nc2cc(Nc3ncc(C#N)cn3)ncc2C(=O)NC[C@@H](F)C(C)(C)O)cc1` [Example 147], 439 nM.

Take `Cn1nnnc1-c1ccc(Nc2cc(Nc3ncc(C#N)cc3Cl)ncc2C(=O)NC[C@@H](F)C(C)(C)O)cc1` [Example 148]: the EC50 came out at 111 nM. The same measure, in the same setting: for `CS(=O)(=O)[C@H]1CC[C@H](NC(=O)c2cnc(Nc3ncc(C#N)cc3Cl)cc2NC2CCOCC2)CC1` [Example 149] the value was 193 nM; for `CC(C)(O)[C@H](F)CNC(=O)c1cnc(Nc2ncc(C#N)cc2Cl)cc1N[C@H]1CC[C@](C)(O)CC1` [Example 150], 62 nM. Still for that read-out and setting: next, `CS(=O)(=O)[C@H]1CC[C@H](NC(=O)c2cnc(Nc3ncc(C#N)cc3Cl)cc2NC2CC2)CC1` [Example 151]: 187 nM. Same read-out and setting: next, `CC(C)(O)[C@H](F)CNC(=O)c1cnc(Nc2ncc(C#N)cc2Cl)cc1N[C@H]1CC[C@@](C)(O)CC1` [Example 152]: 260 nM. For the compound `CC(C)(O)[C@H](F)CNC(=O)c1cnc(Nc2ncc(C#N)cc2Cl)cc1Nc1ccc2ncsc2c1` [Example 153], the EC50 came out at 439 nM. For the compound `CC(C)(O)[C@H](F)CNC(=O)c1cnc(Nc2ncc(C#N)c(N)n2)cc1NC1CC1` [Example 154], the EC50 was 529 nM.

Take `CC(C)CNc1cc(Nc2ncc(C#N)cc2Cl)ncc1C(=O)NC[C@@H](F)C(C)(C)O` [Example 155]: the concentration giving a half-maximal response (EC50) was found to be 309 nM. Still for that read-out and setting: next, `CC(C)Nc1cc(Nc2ncc(C#N)cc2Cl)ncc1C(=O)NC[C@H](F)C(C)(C)O` [Example 156]: 124 nM. On the same count and under the same terms, for `CS(=O)(=O)[C@H]1CC[C@H](NC(=O)c2cnc(Nc3ncc(C#N)cc3F)cc2Nc2cccc(C(N)=O)c2)CC1` [Example 161] the value was 303 nM; for `CC(C)(O)[C@H](F)CNC(=O)c1cnc(Nc2ncc(C#N)cc2Cl)cc1Nc1cccc(C#N)c1` [Example 162], 330 nM. On to `CC(Nc1cc(Nc2ncc(C#N)cn2)ncc1C(=O)NC[C@@H](F)C(C)(C)O)C1CC1` (stereo partly drawn) [Example 163], for which the half-maximal effective concentration (EC50) is 459 nM. Still for that read-out and setting: next, `COC(=O)N[C@H]1CC[C@H](NC(=O)c2cnc(Nc3ncc(C#N)cc3F)cc2NC(C)C)CC1` [Example 165]: 279 nM; `CC(C)Nc1cc(Nc2ncc(C#N)cc2F)ncc1C(=O)NC1CCC(O)(c2ccnn2C)CC1` (stereo not drawn) [Example 166]: 202 nM.

For the compound `CC(C)Nc1cc(Nc2ncc(C#N)cc2F)ncc1C(=O)NC1CCC(O)(c2nccs2)CC1` (stereo not drawn) [Example 167], the EC50 was found to be 638 nM.

As to `CC(C)(O)[C@H](F)CNC(=O)c1cnc(Nc2ncc(C#N)cc2Cl)cc1Nc1ccc(-n2cccn2)cc1` [Example 168], the EC50 is 122 nM.

The assay is the same for the next values; noted with them: human PBMC, 10 μg/ml lipoteichoic acid for 5 hours, IL-6 by ELISA; values marked * are EC50; read-out: Cell EC50 (values marked *).
With `CC(C)(O)[C@H](F)CNC(=O)c1cnc(Nc2ncc(C#N)cc2F)cc1NC1COC1` [Example 164], the EC50 came out at 174 nM.

What is called IC50 is the concentration at which inhibition is half-maximal. In general, EC50 refers to the concentration needed to bring the measured effect to its halfway point.
